From patent US8735406B2, “8-oxodihydropurine derivative” (Dainippon Sumitomo Pharma Co., Ltd., priority 2009, dated 2014)
Like-named read-outs stand apart in the source and are kept apart here.

Target: T1, FAAH (Rattus norvegicus, UniProt P97612)
T1 construct: Preparation of Rat Brain Membranes Preparations (FAAH Enzyme Solution); from tissue; host or cells: rat cerebrum (brain membrane preparation)
T1 sequence (P97612 1-579): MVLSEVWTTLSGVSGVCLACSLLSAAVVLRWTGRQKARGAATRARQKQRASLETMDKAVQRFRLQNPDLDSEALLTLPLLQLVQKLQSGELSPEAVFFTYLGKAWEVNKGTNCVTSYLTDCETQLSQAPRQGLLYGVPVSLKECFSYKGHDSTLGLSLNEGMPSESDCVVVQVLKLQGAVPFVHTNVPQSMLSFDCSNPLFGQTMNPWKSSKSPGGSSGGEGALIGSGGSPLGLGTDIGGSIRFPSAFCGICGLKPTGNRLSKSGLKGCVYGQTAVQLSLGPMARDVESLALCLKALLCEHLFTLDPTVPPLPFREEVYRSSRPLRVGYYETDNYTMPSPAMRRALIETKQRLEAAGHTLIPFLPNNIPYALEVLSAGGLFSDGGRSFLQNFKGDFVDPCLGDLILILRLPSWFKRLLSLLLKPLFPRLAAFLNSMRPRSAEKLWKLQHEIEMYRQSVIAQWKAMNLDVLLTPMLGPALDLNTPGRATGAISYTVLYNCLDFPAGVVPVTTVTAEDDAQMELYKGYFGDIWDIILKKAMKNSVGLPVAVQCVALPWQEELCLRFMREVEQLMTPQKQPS
Assay: Determination of FAAH inhibitory activity in rat (rat brain membrane preparations, [3H]-anandamide hydrolysis)
Assay type: biochemical
Conditions: for inhibition at 0.1 µM: read-out: FAAH Inhibition, Inhibition Rate at 100 nM; for IC50: test substance 0.1 nM to 1 μM
Summary of the method: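 Rat cerebrum membranes (100 μg/mL protein) preincubated 10 min at 37 °C with compound (1% DMSO) in pH 7.6 Tris buffer with 1.5% BSA. Substrate 2 nM [3H]-anandamide plus 2 μM anandamide added for 10 min at 37 °C. [3H]-ethanolamine in the aqueous phase after chloroform/methanol extraction was scintillation counted; IC50 over 0.1 nM–1 μM.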

[1] = rat brain membrane preparations, 100 nM test substance
[2] = rat brain membrane preparations, read-out: FAAH Inhibition IC50

SMILES | inhibition at 0.1 µM [1] [%] | IC50 [2] [nM] | IC50 (FAAH Inhibition IC50, rat brain membrane preparations) [nM] | inhibition at 0.1 µM [%]
Cn1c(=O)n(C(=O)N2CCC2)c2nc(-c3ccccc3)ncc21 [compound 352] | 42 | 164 | – | –
Cn1c(=O)n(C(=O)N2CCC2)c2nc(-c3cccc(F)c3)ncc21 [compound 353] | 72 | 92 | – | –
Cn1c(=O)n(C(=O)N2CCC2)c2nc(-c3ccc(F)cc3)ncc21 [compound 354] | 79 | 52 | – | –
COc1cccc(-c2ncc3c(n2)n(C(=O)N2CCC2)c(=O)n3C)c1 [compound 355] | 76 | 86 | – | –
Cn1c(=O)n(C(=O)N2CCC2)c2nc(-c3cccc(C(F)(F)F)c3)ncc21 [compound 357] | 107 | 11 | – | –
Cn1c(=O)n(C(=O)N2CCC2)c2nc(-c3ccc(OCC(F)F)cc3)ncc21 [compound 368] | 99 | 17 | – | –
Cc1cccc(Cc2ncc3c(n2)n(C)c(=O)n3C(=O)N2CCC2)c1 [compound 371] | 43 | 149 | – | –
Cn1c(=O)n(C(=O)N2CCC2)c2cnc(Cc3cccc(F)c3)nc21 [compound 372] | 80 | 32 | – | –
Cn1c(=O)n(C(=O)N2CCC2)c2cnc(Cc3ccc(F)cc3)nc21 [compound 373] | 90 | 17 | – | –
Cn1c(=O)n(C(=O)N2CCC2)c2cnc(Cc3ccccc3F)nc21 [compound 374] | 85 | 12 | – | –
COc1ccc(Cc2ncc3c(n2)n(C)c(=O)n3C(=O)N2CCC2)cc1 [compound 376] | 89 | 24 | – | –
Cn1c(=O)n(C(=O)N2CCC2)c2cnc(Cc3ccccc3Cl)nc21 [compound 377] | 82 | 39 | – | –
Cn1c(=O)n(C(=O)N2CCC2)c2cnc(Cc3ccc(Cl)cc3)nc21 [compound 378] | 80 | 31 | – | –
CCOc1ccc(C2CN(C(=O)n3c(=O)n(C)c4nc(CCOC)ncc43)C2)cc1 [compound 392] | 105 | 11 | – | –
Cn1c(=O)n(C(=O)N2CCC2)c2cnc(COc3ccccc3)nc21 [compound 403] | 93 | 20 | – | –
Cn1c(=O)n(C(=O)N2CCC2)c2cnc(COc3cccc(F)c3)nc21 [compound 405] | – | – | 98 | 97
Cn1c(=O)n(C(=O)N2CCC2)c2cnc(COc3ccc(Cl)cc3)nc21 [compound 406] | 54 | 100 | – | –
Cn1c(=O)n(C(=O)N2CCC2)c2cnc(COc3cccc(Cl)c3)nc21 [compound 407] | 70 | 92 | – | –

SMILES | inhibition at 0.1 µM [1] [%] | IC50 [2] [nM] | IC50 (FAAH Inhibition IC50, rat brain membrane preparations) [nM] | inhibition at 0.1 µM [%]
Cn1c(=O)n(C(=O)N2CCC2)c2cnc(COc3ccccc3F)nc21 [compound 408] | 69 | 99 | – | –
Cn1c(=O)n(C(=O)N2CCC2)c2cnc(COc3ccccc3Cl)nc21 [compound 409] | 63 | 96 | – | –
Cn1c(=O)n(C(=O)N2CCC2)c2cnc(COc3cccc(C(F)(F)F)c3)nc21 [compound 410] | 55 | 100 | – | –
Cc1cccc(OCc2ncc3c(n2)n(C)c(=O)n3C(=O)N2CCC2)c1 [compound 411] | 45 | 171 | – | –
Cn1c(=O)n(C(=O)N2CCC2)c2cnc(COc3cccc(OC(F)(F)F)c3)nc21 [compound 412] | 56 | 78 | – | –
COCc1ncc2c(n1)n(C)c(=O)n2C(=O)N1CC(c2ccccc2C)C1 [compound 442] | 54 | 74 | – | –
COCc1ncc2c(n1)n(C)c(=O)n2C(=O)N1CC(c2cccc(C)c2)C1 [compound 444] | 69 | 62 | – | –
COCc1ncc2c(n1)n(C)c(=O)n2C(=O)N1CC(c2cccc(OC(F)(F)F)c2)C1 [compound 449] | 84 | 28 | – | –
COCc1ncc2c(n1)n(C)c(=O)n2C(=O)N1CC(c2ccc(OC)cc2)C1 [compound 450] | 89 | 20 | – | –
CCOc1cccc(C2CN(C(=O)n3c(=O)n(C)c4nc(COC)ncc43)C2)c1 [compound 451] | 95 | 12 | – | –
COCc1ncc2c(n1)n(C)c(=O)n2C(=O)N1CC(c2ccc(C)cc2)C1 [compound 452] | 74 | 39 | – | –
CCCOCc1ncc2c(n1)n(C)c(=O)n2C(=O)N1CC(c2ccccc2)C1 [compound 467] | 69 | 52 | – | –
CN(C)C(=O)n1c(=O)n(C)c2cnc(CCc3ccc(F)c(F)c3)nc21 [compound 496] | 86 | 15 | – | –
Cc1cccc(CCc2ncc3c(n2)n(C(=O)N(C)C)c(=O)n3C)c1 [compound 498] | 93 | 24 | – | –
CN(C)C(=O)n1c(=O)n(C)c2cnc(CCc3ccccc3F)nc21 [compound 499] | 91 | 28 | – | –
Cc1ccc(C)c(CCc2ncc3c(n2)n(C(=O)N(C)C)c(=O)n3C)c1 [compound 507] | 95 | 24 | – | –
Cc1cc(CCc2ncc3c(n2)n(C(=O)N(C)C)c(=O)n3C)ccc1F [compound 509] | 99 | 10 | – | –
Cc1ccc(CCc2ncc3c(n2)n(C(=O)N(C)C)c(=O)n3C)cc1C [compound 510] | 102 | 11 | – | –

Further lines, with some results ahead:

inhibition at 0.1 µM [1] [%] | IC50 [2] [nM] | SMILES | IC50 (FAAH Inhibition IC50, rat brain membrane preparations) [nM] | inhibition at 0.1 µM [%]
103 | 10 | CCCCOc1ccc(-c2ncc3c(n2)n(C(=O)N2CCC2)c(=O)n3C)cc1 [compound 349] | – | –
94 | 10 | Cn1c(=O)n(C(=O)N2CCC2)c2nc(-c3cccc(OC(F)(F)F)c3)ncc21 [compound 350] | – | –
104 | 10 | Cn1c(=O)n(C(=O)N2CCC2)c2nc(-c3ccc(OC(F)(F)F)cc3)ncc21 [compound 351] | – | –
105 | 9 | COCCc1ncc2c(n1)n(C)c(=O)n2C(=O)N1CC(c2ccccc2)C1 [compound 389] | – | –
120 | 1 | COCCc1ncc2c(n1)n(C)c(=O)n2C(=O)N1CC(c2ccc(F)cc2)C1 [compound 390] | – | –
105 | 4 | COCCc1ncc2c(n1)n(C)c(=O)n2C(=O)N1CC(c2cccc(F)c2)C1 [compound 391] | – | –
101 | 10 | COCCc1ncc2c(n1)n(C)c(=O)n2C(=O)N1CC(c2cccc(C(F)(F)F)c2)C1 [compound 393] | – | –
105 | 10 | CCOc1ccc(C2CN(C(=O)n3c(=O)n(C)c4nc(COC)ncc43)C2)cc1 [compound 445] | – | –
101 | 6 | COCc1ncc2c(n1)n(C)c(=O)n2C(=O)N1CC(c2ccc(Cl)cc2)C1 [compound 446] | – | –
131 | 1 | COCc1ncc2c(n1)n(C)c(=O)n2C(=O)N1CC(c2cccc(Cl)c2)C1 [compound 447] | – | –
95 | 10 | COCc1ncc2c(n1)n(C)c(=O)n2C(=O)N1CC(c2ccc(C(F)(F)F)cc2)C1 [compound 448] | – | –
96 | 10 | COCc1ncc2c(n1)n(C)c(=O)n2C(=O)N1CC(c2ccccc2OC)C1 [compound 457] | – | –
107 | 10 | CCOCc1ncc2c(n1)n(C)c(=O)n2C(=O)N1CC(c2ccc(F)cc2)C1 [compound 461] | – | –
103 | 2 | CCCOCc1ncc2c(n1)n(C)c(=O)n2C(=O)N1CC(c2ccc(F)cc2)C1 [compound 470] | – | –
113 | 8 | COCCOCc1ncc2c(n1)n(C)c(=O)n2C(=O)N1CC(c2cccc(F)c2)C1 [compound 473] | – | –
100 | 10 | CN(C)C(=O)n1c(=O)n(C)c2cnc(CCc3cccc(OC(F)(F)F)c3)nc21 [compound 495] | – | –
104 | 10 | CCCc1ccc(CCc2ncc3c(n2)n(C(=O)N(C)C)c(=O)n3C)cc1 [compound 500] | – | –
103 | 10 | CCCOc1ccc(CCc2ncc3c(n2)n(C(=O)N(C)C)c(=O)n3C)cc1 [compound 501] | – | –
104 | 10 | CC(C)c1ccc(CCc2ncc3c(n2)n(C(=O)N(C)C)c(=O)n3C)cc1 [compound 502] | – | –
101 | 10 | CCc1ccc(CCc2ncc3c(n2)n(C(=O)N(C)C)c(=O)n3C)cc1 [compound 503] | – | –
100 | 6 | CN(C)C(=O)n1c(=O)n(C)c2cnc(CCc3cc(F)c(F)c(F)c3)nc21 [compound 504] | – | –
100 | 5 | CCCCc1ccc(CCc2ncc3c(n2)n(C(=O)N(C)C)c(=O)n3C)cc1 [compound 508] | – | –
